Assay results as given in patent US8642657B2 (Gruenenthal GmbH, priority 2003, dated 2014).

How the values were obtained:
[1] = biological target: T1, rat VR1 (Rattus norvegicus, UniProt O35433); assay: [3H]resiniferatoxin (RTX) competition binding assay, VR1-transfected CHO cells
T1 construct: expressed in transfected cells
In short: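 Competition with [3H]RTX (50-100 pM) ran 60 min at 37° C using whole VR1-induced CHO cells in BSA-containing DPBS, nonspecific defined by 100 nM cold RTX. After centrifugation, pellet radioactivity counted by scintillation; Hill fits gave Ki and cooperativity.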

[2] = biological target: T1, rat VR1; assay: 45Ca2+-uptake assay in CHO/VR1 cells, antagonism of capsaicin-stimulated uptake; format: cell-based; conditions: 45Ca2+ uptake stimulated by 50 nM capsaicin
[3] = competition with [3H]RTX, rat VR1 in CHO cells, read-out: Ki (nM) Binding Affinity

T1 sequence (O35433 whole entry): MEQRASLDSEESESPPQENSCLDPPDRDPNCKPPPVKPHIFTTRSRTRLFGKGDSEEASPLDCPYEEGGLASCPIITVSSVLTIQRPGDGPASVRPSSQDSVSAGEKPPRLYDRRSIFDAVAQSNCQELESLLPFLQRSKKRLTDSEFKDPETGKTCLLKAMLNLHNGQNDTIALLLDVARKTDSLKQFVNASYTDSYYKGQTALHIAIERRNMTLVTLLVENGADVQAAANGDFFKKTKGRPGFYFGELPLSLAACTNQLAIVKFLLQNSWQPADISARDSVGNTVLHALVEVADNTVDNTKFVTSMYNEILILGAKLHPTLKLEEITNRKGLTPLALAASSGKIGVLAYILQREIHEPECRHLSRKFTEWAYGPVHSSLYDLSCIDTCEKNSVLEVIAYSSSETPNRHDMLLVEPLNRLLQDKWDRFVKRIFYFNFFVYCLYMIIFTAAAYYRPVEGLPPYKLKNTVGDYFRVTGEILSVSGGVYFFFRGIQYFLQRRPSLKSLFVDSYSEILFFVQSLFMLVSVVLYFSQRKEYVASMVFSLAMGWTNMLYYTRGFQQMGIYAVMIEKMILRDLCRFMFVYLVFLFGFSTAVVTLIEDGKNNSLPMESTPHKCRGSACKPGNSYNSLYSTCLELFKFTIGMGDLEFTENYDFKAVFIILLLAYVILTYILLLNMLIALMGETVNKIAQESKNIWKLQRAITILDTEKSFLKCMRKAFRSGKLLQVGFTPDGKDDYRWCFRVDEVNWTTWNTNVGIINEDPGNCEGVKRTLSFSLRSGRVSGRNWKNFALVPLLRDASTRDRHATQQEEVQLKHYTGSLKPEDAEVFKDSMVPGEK

**Q.** For `COc1cc(C(C)(C)C(=O)NCCCc2ccc(C)c(C)c2)ccc1NS(C)(=O)=O` [9-6, N-[3-(3,4-Dimethylphenyl)propyl]-2-[3-methoxy-4-(methylsulfonylamino)phenyl]-2-methylpropionamide], which Ki [1] is on record?
**A.** 838 nM

**Q.** What about the Ki [2] of the same compound?
**A.** 366 nM

**Q.** And the melting point?
**A.** 93 to 95 °C

**Q.** Which Ki [1] does the source give for `C[C@@H](NC(=S)N[C@@H](COC(=O)C(C)(C)C)Cc1ccccc1)c1ccc(NS(C)(=O)=O)cc1` [19-13, N-[(2R)-3-phenyl-1-pivaloyloxy-2-propyl]-N′-[(R)-α-methyl-4-(methylsulfonylamino)benzy]thiourea] here?
**A.** 420 nM

**Q.** What about the Ki [2] of the same compound?
**A.** 193 nM

**Q.** And the melting point?
**A.** 59 to 61 °C

**Q.** With `Cc1ccc(CC(CNC(=S)NC(C)c2ccc(NS(C)(=O)=O)cc2)COC(=O)C(C)(C)C)cc1C` (stereo not drawn) [18-5, N-[2-(3,4-Dimethylbenzyl)-3-(pivaloyloxy)propyl]-N′-{1-[4-(methylsulfonylamino)phenyl]ethyl}thiourea] as the compound, how does the Ki [1] read?
**A.** 37.2 nM

**Q.** What about the Ki [2] of the same compound?
**A.** 25.9 nM

**Q.** What about the melting point of the same compound?
**A.** 77 °C

**Q.** Which Ki [1] does the source give for `CC(C(=O)NCc1ccc(Cl)cc1)c1ccc(NS(C)(=O)=O)c(Cl)c1` (stereo not drawn) [4-2, N-(4-Chlorobenzyl)-2-[3-chloro-4-(methylsulfonylamino)phenyl]propionamide] here?
**A.** 729 nM

**Q.** What about the Ki [2] of the same compound?
**A.** 447 nM

**Q.** What about the melting point of the same compound?
**A.** 134 to 135 °C

**Q.** For `CC(NC(=S)NCC(COC(=O)C(C)(C)C)Cc1ccc(C(C)(C)C)cc1)c1ccc(NS(C)(=O)=O)cc1` (stereo not drawn) [18-9, N-[2-(4-tert-Butylbenzyl)-3-(pivaloyloxy)propyl]-N′-{1-[4-(methylsulfonylamino)phenyl]ethyl}thiourea], which Ki [1] is on record?
**A.** 42.7 nM

**Q.** And the Ki [2]?
**A.** 28.7 nM

**Q.** And the melting point?
**A.** 87 °C

**Q.** With `C[C@@H](C(=O)NC[C@H](COC(=O)C(C)(C)C)Cc1ccc(C(C)(C)C)cc1)c1ccc(NS(C)(=O)=O)c(F)c1` [6-12, N-[(2R)-2-(4-t-Butylbenzyl)-3-(pivaloyloxy)propyl]-(2R)-2-[3-fluoro-4-(methylsulfonylamino)phenyl]propionamide] as the compound, how does the Ki [1, 3] read?
**A.** 53 nM

**Q.** What about the Ki [2] of the same compound?
**A.** 30.3 nM

**Q.** What about the melting point of the same compound?
**A.** 43 to 45 °C

**Q.** For `CC(C(=O)NCC(COC(=O)C(C)(C)C)Cc1ccc(C(C)(C)C)cc1)c1ccc(NS(C)(=O)=O)c(F)c1` (stereo not drawn) [5-4, 2-[3-Fluoro-4-(methylsulfonylamino)phenyl]-N-[2-(4-tert-butylbenzyl)-3-pivaloyloxypropyl]propionamide], which Ki [1, 3] is on record?
**A.** 13.6 nM

**Q.** What about the Ki [2] of the same compound?
**A.** 3.24 nM

**Q.** What about the melting point of the same compound?
**A.** 113 to 115 °C

**Q.** With `CC(C(=O)NCc1ccc(Cl)cc1)c1ccc(NS(C)(=O)=O)c(Br)c1` (stereo not drawn) [4-3, N-(4-Chlorobenzyl)-2-[3-bromo-4-(methylsulfonylamino)phenyl]propionamide] as the compound, how does the Ki [1] read?
**A.** 541 nM

**Q.** What about the Ki [2] of the same compound?
**A.** 296 nM

**Q.** And the melting point?
**A.** 147 °C

**Q.** With `C[C@H](NC(=S)NC[C@H](COC(=O)C(C)(C)C)Cc1ccccc1)c1ccc(NS(C)(=O)=O)cc1` [18-3, N-[(2R)-2-Benzyl-3-(pivaloyloxy)propyl]-N′-{(1S)-1-[4-(methylsulfonylamino)phenyl]ethyl}thiourea] as the compound, how does the Ki [1] read?
**A.** 1140 nM

**Q.** What about the Ki [2] of the same compound?
**A.** 3470 nM

**Q.** And the melting point?
**A.** 58 to 62 °C

**Q.** What does the source list for `CC(C(=O)NCc1ccc(C(C)(C)C)cc1)c1ccc(NS(C)(=O)=O)c(C#N)c1` (stereo not drawn) [1-56, N-(4-tert-Butylbenzyl)-2-[3-cyano-4-(methylsulfonylamino)phenyl]propionamide]?
**A.** Ki [1, 3]: 344 nM; Ki [2]: 467 nM; melting point: 102 to 105 °C

**Q.** For `Cc1ccc(CC(CNC(=S)NC(C)c2ccc(NS(C)(=O)=O)c(F)c2)COC(=O)C(C)(C)C)cc1C` (stereo not drawn) [18-13, N-[2-(3,4-Dimethylbenzyl)-3-(pivaloyloxy)propyl]-N′-{1-[3-fluoro-4-(methylsulfonylamino)phenyl]ethyl}thiourea], which Ki [1] is on record?
**A.** 37 nM

**Q.** And the Ki [2]?
**A.** 7.09 nM

**Q.** And the melting point?
**A.** 73 °C

**Q.** Which Ki [1, 3] does the source give for `CC(C(=O)NCC=C(c1ccc(F)cc1)c1ccc(F)cc1)c1ccc(NS(C)(=O)=O)c(F)c1` (stereo not drawn) [4-27, N-[3,3-Di(4-fluorophenyl)-2-propenyl]-2-[3-fluoro-4-(methylsulfonylamino)phenyl]propionamide] here?
**A.** 43.3 nM

**Q.** And the Ki [2]?
**A.** 29.3 nM

**Q.** And the melting point?
**A.** 57 to 60 °C

**Q.** For `CC(C)(C)c1ccc(CNC(=O)C(C)(C)c2ccc(NS(C)(=O)=O)cc2)cc1` [9-7, N-(4-tert-Butylbenzyl)-2-[4-(methylsulfonylamino)phenyl]-2-methylpropionamide], which Ki [1] is on record?
**A.** 425 nM

**Q.** What about the Ki [2] of the same compound?
**A.** 2550 nM

**Q.** And the melting point?
**A.** 141 to 143 °C

**Q.** For `CC(C)(C)c1ccc(CNC(=O)C2(c3ccc(NS(C)(=O)=O)cc3)CC2)cc1` [12-7, N-(4-tert-Butylbenzyl)-1-[4-(methylsulfonylamino)phenyl]cyclopropanecarboxamide], which Ki [1, 3] is on record?
**A.** 608 nM

**Q.** What about the Ki [2] of the same compound?
**A.** 1760 nM

**Q.** What about the melting point of the same compound?
**A.** 200 to 203 °C

**Q.** Which Ki [1] does the source give for `C[C@H](NC(=S)NC[C@@H](COC(=O)C(C)(C)C)Cc1ccccc1)c1ccc(NS(C)(=O)=O)cc1` [18-4, N-[(2S)-2-Benzyl-3-(pivaloyloxy)propyl]-N′-{(1S)-1-[4-(methylsulfonylamino)phenyl]ethyl}thiourea] here?
**A.** 706 nM

**Q.** And the Ki [2]?
**A.** 133 nM

**Q.** What about the melting point of the same compound?
**A.** 62 to 64 °C

**Q.** Which Ki [1] does the source give for `Cc1ccc(C=CC(=O)NC(C)c2ccc(NS(C)(=O)=O)c(F)c2)cc1C` (stereo not drawn) [24-5, N-{1-[3-Fluoro-4-(methylsulfonylamino)phenyl]ethyl}-3-(3,4-dimethylphenyl)-2-propenamide] here?
**A.** 2520 nM

**Q.** And the Ki [2]?
**A.** 1350 nM

**Q.** And the melting point?
**A.** 212 to 213 °C

**Q.** Which results are given for `COc1cc(C(C)C(=O)NCc2ccc(C(C)(C)C)cc2)ccc1NS(C)(=O)=O` (stereo not drawn) [1-65, N-(4-tert-Butylbenzyl)-2-[3-methoxy-4-(methylsulfonylamino)phenyl]propionamide]?
**A.** Ki [1, 3]: 536 nM; Ki [2]: 232 nM; melting point: 74 to 76 °C

**Q.** Which Ki [1, 3] does the source give for `CC(NC(=O)Cc1ccc(C(C)(C)C)cc1)c1ccc(NS(C)(=O)=O)c(F)c1` (stereo not drawn) [24-1, N-{1-[3-Fluoro-4-(methylsulfonylamino)phenyl]ethyl}-3-(4-tert-butylphenyl)acetamide] here?
**A.** 2130 nM

**Q.** What about the Ki [2] of the same compound?
**A.** 2220 nM

**Q.** What about the melting point of the same compound?
**A.** 134 to 136 °C

**Q.** With `CC(C)(C)c1ccc(CNC(=S)NC(Cc2ccccc2)c2ccc(NS(C)(=O)=O)c(F)c2)cc1` (stereo not drawn) [20-15, N-(4-t-Butylbenzyl)-N′-{1-[4-(methylsulfonylamino)-3-fluorophenyl]-2-phenylethyl}thiourea] as the compound, how does the Ki [1, 3] read?
**A.** 1740 nM

**Q.** What about the Ki [2] of the same compound?
**A.** 695 nM

**Q.** And the melting point?
**A.** 116 °C

**Q.** For `Cc1ccc(CC(CNC(=O)C(C)(C)c2ccc(NS(C)(=O)=O)c(F)c2)COC(=O)C(C)(C)C)cc1C` (stereo not drawn) [9-2, N-[2-(3,4-Dimethylbenzyl)-3-pivaloyloxypropyl]-2-[3-fluoro-4-(methylsulfonylamino)phenyl]-2-methylpropionamide], which Ki [1] is on record?
**A.** 276 nM

**Q.** And the Ki [2]?
**A.** 65.4 nM

**Q.** And the melting point?
**A.** 53 to 55 °C

**Q.** What does the source list for `C[C@@H](NC(=S)NCC(COC(=O)C(C)(C)C)Cc1ccc(C(C)(C)C)cc1)c1ccc(NS(C)(=O)=O)cc1` (stereo partly drawn) [18-10, N-[2-(4-tert-Butylbenzyl)-3-(pivaloyloxy)propyl]-N′-{(1R)-1-[4-(methylsulfonylamino)phenyl]ethyl}thiourea]?
**A.** Ki [1]: 9.95 nM; Ki [2]: 23.9 nM; melting point: 88 to 90 °C

**Q.** With `CC(NC(=S)NCC(COC(=O)C(C)(C)C)Cc1ccc(C(C)(C)C)cc1)c1ccc(NS(C)(=O)=O)c(F)c1` (stereo not drawn) [18-14, N-[2-(4-tert-Butylbenzyl)-3-(pivaloyloxy)propyl]-N′-{1-[3-fluoro-4-(methylsulfonylamino)phenyl]ethyl}thiourea] as the compound, how does the Ki [1] read?
**A.** 37 nM

**Q.** And the Ki [2]?
**A.** 9.34 nM

**Q.** And the melting point?
**A.** 78 °C

**Q.** With `C[C@H](C(=O)NC[C@H](COC(=O)C(C)(C)C)Cc1ccc(C(C)(C)C)cc1)c1ccc(NS(C)(=O)=O)c(F)c1` [6-9, N-[(2R)-2-(4-t-Butylbenzyl)-3-(pivaloyloxy)propyl]-(2S)-2-[3-fluoro-4-(methylsulfonylamino)phenyl]propionamide] as the compound, how does the Ki [1] read?
**A.** 4.24 nM

**Q.** What about the Ki [2] of the same compound?
**A.** 0.58 nM

**Q.** And the melting point?
**A.** 44 to 46 °C

**Q.** Which Ki [1] does the source give for `CC(C(=O)NCCC(c1ccccc1)c1ccccc1)c1ccc(NS(C)(=O)=O)c(F)c1` (stereo not drawn) [4-24, N-(3,3-Diphenylpropyl)-2-[3-fluoro-4-(methylsulfonylamino)phenyl]propionamide] here?
**A.** 128 nM

**Q.** What about the Ki [2] of the same compound?
**A.** 36.6 nM

**Q.** And the melting point?
**A.** 66 to 68 °C

**Q.** For `Cc1ccc(CC(CNC(=O)C(C)c2ccc(NS(C)(=O)=O)cc2)COC(=O)C(C)(C)C)cc1C` (stereo not drawn) [5-1, N-[2-(3,4-Dimethylbenzyl)-3-pivaloyloxypropyl]-2-[4-(methylsulfonylamino)phenyl]propionamide], which Ki [1, 3] is on record?
**A.** 119 nM

**Q.** What about the Ki [2] of the same compound?
**A.** 38 nM

**Q.** What about the melting point of the same compound?
**A.** 112 to 115 °C

**Q.** For `CCC(NC(=S)NCc1ccc(C(C)(C)C)cc1)c1ccc(NS(C)(=O)=O)c(F)c1` (stereo not drawn) [20-12, N-(4-t-Butylbenzyl)-N′-{1-[4-(methylsulfonylamino)-3-fluorophenyl]propyl}thiourea], which Ki [1, 3] is on record?
**A.** 230 nM

**Q.** And the Ki [2]?
**A.** 54.3 nM

**Q.** What about the melting point of the same compound?
**A.** 85 °C

**Q.** For `CC(C(=O)NCc1ccc(C(C)(C)C)cc1)c1ccc(NS(C)(=O)=O)c(F)c1` (stereo not drawn) [1-51, N-(4-tert-Butylbenzyl)-2-[3-fluoro-4-(methylsulfonylamino)phenyl]propionamide], which Ki [1] is on record?
**A.** 58.4 nM

**Q.** What about the Ki [2] of the same compound?
**A.** 5.47 nM

**Q.** And the melting point?
**A.** 52 to 54 °C

**Q.** Which results are given for `C[C@@H](NC(=S)NC[C@H](COC(=O)C(C)(C)C)Cc1ccccc1)c1ccc(NS(C)(=O)=O)cc1` [18-1, N-[(2R)-2-Benzyl-3-(pivaloyloxy)propyl]-N′-{(1R)-1-[4-(methylsulfonylamino)phenyl]ethyl}thiourea]?
**A.** Ki [1]: 22.7 nM; Ki [2]: 44.5 nM; melting point: 62 to 64 °C

**Q.** Which Ki [1, 3] does the source give for `COc1cc(C2(C(=O)NCC(COC(=O)C(C)(C)C)Cc3ccc(C)c(C)c3)CC2)ccc1NS(C)(=O)=O` (stereo not drawn) [12-3, N-[2-(3,4-Dimethylbenzyl)-3-pivaloyloxypropyl]-1-[3-methoxy-4-(methylsulfonylamino)phenyl]cyclopropanecarboxamide] here?
**A.** 238 nM

**Q.** What about the Ki [2] of the same compound?
**A.** 117 nM

**Q.** And the melting point?
**A.** 66 to 68 °C
